Assay results: patent publication US11384060B2, “Amide compounds and use thereof” (ALPHALA CO., LTD., priority 2017, dated 2022)
Where two headings read alike, the source gives them in different places.

What was measured:
glucagon receptor (GCGR) = target: T1, glucagon receptor (GCGR) (Homo sapiens, UniProt P47871); experiment: I125-glucagon binding assay (competition, GCGR membrane fractions)
T1 construct: expressed in transfected cells; host or cells: CHO-K1 cells overexpressing GCGR (membrane fractions)
Outline: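 Competition of 0.0625 nM (final) I^125-glucagon for 30 min at 25° C, after 5 min compound preincubation, using 7.5 μg/well GCGR-overexpressing CHO-K1 membranes in 50 mM Tris pH 7.4, 0.5% BSA. Filtration onto PEI-coated GF/B, micro-beta counting, and non-linear regression gave IC50.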

[1] = target: T2, glucagon receptor (GCGR) overexpressed CHO-K1 cells or human primary hepatocytes (Homo sapiens, UniProt P47871); experiment: Glucagon cAMP inhibition assay (Cisbio cAMP Dynamic 2 HTRF); type: cell-based
T2 construct: expressed in transfected cells; host or cells: GCGR overexpressed CHO-K1 cells or human primary hepatocytes (endogenous receptor)
Outline: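 HTRF read-out of glucagon-induced cAMP, with IC50 from non-linear regression. Cells (GCGR CHO-K1 or human primary hepatocytes) in HBSS/0.1% BSA/800 nM IBMX took compound dilutions for 30 min (final DMSO 1%), then EC50-level glucagon for 30 min at room temperature, then a 60 min lysis/detection step.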

T1 sequence (P47871 26-477): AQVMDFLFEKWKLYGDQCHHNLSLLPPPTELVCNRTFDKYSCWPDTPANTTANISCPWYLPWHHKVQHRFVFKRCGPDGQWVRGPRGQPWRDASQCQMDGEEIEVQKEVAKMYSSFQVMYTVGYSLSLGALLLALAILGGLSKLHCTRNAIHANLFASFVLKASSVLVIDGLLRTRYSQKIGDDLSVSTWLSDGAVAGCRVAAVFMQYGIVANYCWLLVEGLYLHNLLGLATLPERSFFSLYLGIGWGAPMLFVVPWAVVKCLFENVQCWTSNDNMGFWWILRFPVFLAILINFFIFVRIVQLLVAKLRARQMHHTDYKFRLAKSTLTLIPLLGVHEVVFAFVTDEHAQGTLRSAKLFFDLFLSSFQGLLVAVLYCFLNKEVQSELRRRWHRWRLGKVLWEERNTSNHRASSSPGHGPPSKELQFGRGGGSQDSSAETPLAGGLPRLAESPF
T2 sequence (P47871 26-477): as above

| SMILES | IC50 (glucagon receptor (GCGR); competition with I125-glucagon 0.0625 nM, membrane fractions of GCGR overexpressed CHO-K1 cells) | IC50 cAMP ([1]; inhibition of glucagon (EC50 concentration) induced cAMP production) | IC50 (glucagon receptor (GCGR)) | IC50 cAMP [1] |
| --- | --- | --- | --- | --- |
| CC(C)[C@@H](COc1ccc(-c2ccc(C(C)(C)C)cc2)nn1)Nc1ccc(C(=O)NCCC(=O)O)cc1 [Compound 17-12, (S)-3-(4-((1-((6-(4-(tert-buty)phenyl)pyridazin-3-yl)oxy)-3-methylbutan-2-yl)amino)benzamido)propanoic Acid] | 20000 nM | 6494 nM | – | – |
| CCCC[C@@H](COc1ccc(-c2cc3ccccc3o2)c(C)n1)Nc1ccc(C(=O)NCCC(=O)O)cc1 [Compound 18-1, (S)-3-(4-((1-((5-(benzofuran-2-yl)-6-methylpyridin-2-yl)oxy)hexan-2-yl)amino)benzamido)propanoic Acid] | – | – | 386 nM | 250 nM |
| CCCC[C@@H](COc1ccc(-c2ccc(C(F)(F)F)cc2Cl)c(C)n1)Nc1ccc(C(=O)NCCC(=O)O)cc1 [Compound 18-2, (S)-3-(4-((1-((5-(2-chloro-4-(trifluoromethyl)phenyl)-6-methylpyridin-2-yl)oxy)hexan-2-yl)amino)benzamido)propanoic Acid] | – | – | 42 nM | 49 nM |
| CC[C@H](C)[C@@H](COc1ccc(-c2ccc(C(F)(F)F)cc2Cl)c(C)n1)Nc1ccc(C(=O)NCCC(=O)O)cc1 [Compound 18-3, 3-(4-(((2S,3S)-1-((5-(2-chloro-4-(trifluoromethyl)phenyl)-6-methylpyridin-2-yl)oxy)-3-methylpentan-2-yl)amino)benzamido)propanoic Acid] | – | – | 62 nM | 75 nM |
| CC[C@H](C)[C@@H](COc1ccc(-c2cc3ccccc3o2)c(C)n1)Nc1ccc(C(=O)NCCC(=O)O)cc1 [Compound 18-4, 3-(4-(((2S,3S)-1-((5-(benzofuran-2-yl)-6-methylpyridin-2-yl)oxy)-3-methylpentan-2-yl)amino)benzamido)propanoic Acid] | – | – | 203 nM | 151 nM |
| CC[C@H](C)[C@@H](COc1ccc(-c2ccc(Cl)cc2Cl)c(C)n1)Nc1ccc(C(=O)NCCC(=O)O)cc1 [Compound 18-5, 3-(4-(((2S,3S)-1-((5-(2,4-dichlorophenyl)-6-methylpyridin-2-yl)oxy)-3-methylpentan-2-yl)amino)benzamido)propanoic Acid] | – | – | 165 nM | 151 nM |
| CC[C@H](C)[C@@H](COc1ccc(-c2ccc(C(F)(F)F)cc2F)c(C)n1)Nc1ccc(C(=O)NCCC(=O)O)cc1 [Compound 18-6, 3-(4-(((2S,3S)-1-((5-(2-fluoro-4-(trifluoromethyl)phenyl)-6-methylpyridin-2-yl)oxy)-3-methylpentan-2-yl)amino)benzamido)propanoic Acid] | – | – | 179 nM | 204 nM |
| Cc1nc(OC[C@H](CC(C)C)Nc2ccc(C(=O)NCCC(=O)O)cc2)ccc1-c1ccc(C(F)(F)F)cc1Cl [Compound 18-7, (S)-3-(4-((1-((5-(2-chloro-4-(trifluoromethyl)phenyl)-6-methylpyridin-2-)oxy)-4-methylpentan-2-yl)amino)benzamido)propanoic Acid] | – | – | 74 nM | 80 nM |
| Cc1nc(OC[C@H](CC(C)C)Nc2ccc(C(=O)NCCC(=O)O)cc2)ccc1-c1ccc(Cl)cc1Cl [Compound 18-8, (S)-3-(4-((1-((5-(2,4-dichlorophenyl)-6-methylpyridin-2-yl)oxy)-4-methylpentan-2-yl)amino)benzamido)propanoic Acid] | – | – | 49 nM | 122.5 nM |
| Cc1nc(OC[C@H](CC(C)C)Nc2ccc(C(=O)NCCC(=O)O)cc2)ccc1-c1cc2ccccc2o1 [Compound 18-9, (S)-3-(4-((1-((5-(benzofuran-2-yl)-6-methylpyridin-2-yl)oxy)-4-methylpentan-2-yl)amino)benzamido)propanoic Acid] | – | – | 207 nM | 429.9 nM |
| CCCC[C@H](Cc1ccc(-c2ccc(C(F)(F)F)cc2)cc1)Nc1ccc(C(=O)NCCC(=O)O)cc1 [Compound 19-1, (R)-3-(4-((1-(4′-(trifluoromethyl)-[1,1′-biphenyl]-4-yl)hexan-2-yl)amino)benzamido)propanoic Acid] | – | – | 109 nM | 393.8 nM |
| C[C@@H](Cc1ccc(-c2ccc(Cl)cc2Cl)cc1)Nc1ccc(C(=O)NCCC(=O)O)cc1 [Compound 19-2, (S)-3-(4-((1-(2′,4′-dichloro-[1,1′-biphenyl]-4-yl)propan-2-yl)amino)benzamido)propanoic Acid] | – | – | 6320 nM | 5186 nM |
| C[C@@H](Cc1ccc(-c2ccc(C(F)(F)F)cc2)cc1)Nc1ccc(C(=O)NCCC(=O)O)cc1 [Compound 19-3, (S)-3-(4-((1-(4′-(trifluoromethyl)-[1,1′-biphenyl]-4-yl)propan-2-yl)amino)benzamido)propanoic Acid] | – | – | 2730 nM | 2719 nM |
| C[C@@H](Cc1ccc(-c2ccc(C(C)(C)C)cc2)cc1)Nc1ccc(C(=O)NCCC(=O)O)cc1 [Compound 19-4, (S)-3-(4-((1-(4′-(tert-butyl)-[1,1′-biphenyl]-4-yl)propan-2-yl)amino)benzamido)propanoic Acid] | – | – | 1630 nM | 3488 nM |
| CC(C)C[C@H](Cc1ccc(-c2cc3ccccc3o2)cc1)Nc1ccc(C(=O)NCCC(=O)O)cc1 [Compound 19-5, (R)-3-(4-((1-(4-(benzofuran-2-yl)phenyl)-4-methylpentan-2-yl)amino)benzamido)propanoic Acid] | – | – | 163 nM | 1082 nM |
| CCCCC[C@H](Cc1ccc(-c2cc3ccccc3o2)cc1)Nc1ccc(C(=O)NCCC(=O)O)cc1 [Compound 19-6, (R)-3-(4-((1-(4-(benzofuran-2-yl)phenyl)heptan-2-yl)amino)benzamido)propanoic Acid] | – | – | 158 nM | 632 nM |
| CCCC[C@H](Cc1ccc(-c2ccc(C(C)(C)C)cc2)cc1)Nc1ccc(C(=O)NCCC(=O)O)cc1 [Compound 19-7, (R)-3-(4-((1-(4′-(tert-butyl)-[1,1′-biphenyl]-4-yl)hexan-2-yl)amino)benzamido)propanoic Acid] | – | – | 299 nM | 731 nM |
| CC(C)C[C@H](Cc1ccc(-c2ccc(C(C)(C)C)cc2)cc1)Nc1ccc(C(=O)NCCC(=O)O)cc1 [Compound 19-8, (R)-3-(4-((1-(4′-(tert-butyl)-[1,1′-biphenyl]-4-yl)-4-methylpentan-2-yl)amino)benzamido)propanoic Acid] | – | – | 152 nM | 877 nM |
| CCCCC[C@@H](Cc1ccc(-c2ccc(OC(F)(F)F)cc2)cc1)Nc1ccc(C(=O)NCCC(=O)O)cc1 [Compound 19-9, (S)-3-(4-((1-(4′-(trifluoromethoxy)-[1,1′-biphenyl]-4-yl)heptan-2-yl)amino)benzamido)propanoic Acid] | – | – | 151 nM | 76.8 nM |
| CC(C)CC[C@@H](Cc1ccc(-c2ccc(C(F)(F)F)cc2)cc1)Nc1ccc(C(=O)NCCC(=O)O)cc1 [Compound 19-10, (S)-3-(4-((5-methyl-1-(4′-(trifluoromethyl)-[1,1′-biphenyl]-4-yl)hexan-2-yl)amino)benzamido)propanoic Acid] | – | – | 195 nM | 373 nM |
| CCCC[C@@H](Cc1ccc(-c2cc3ccccc3o2)cc1)Nc1ccc(C(=O)NCCC(=O)O)cc1 [Compound 19-11, (S)-3-(4-((1-(4-(benzofuran-2-yl)phenyl)hexan-2-yl)amino)benzamido)propanoic Acid] | – | – | 283 nM | 259.9 nM |
| CCCOC[C@H](Cc1ccc(-c2ccc(C(C)(C)C)cc2)cc1)Nc1ccc(C(=O)NCCC(=O)O)cc1 [Compound 19-12, (S)-3-(4-((1-(4′-(tert-butyl)-[1,1′-biphenyl]-4-yl)-3-propoxypropan-2-yl)amino)benzamido)propanoic Acid] | – | – | 763 nM | 1788 nM |
| CCCOC[C@H](Cc1ccc(-c2ccc(C(F)(F)F)cc2)cc1)Nc1ccc(C(=O)NCCC(=O)O)cc1 [Compound 19-13, (S)-3-(4-((1-propoxy-3-(4′-(trifluoromethyl)-[1,1′-biphenyl]-4-yl)propan-2-yl)amino)benzamido)propanoic Acid] | – | – | 621 nM | 740 nM |
| CCCOC[C@H](Cc1ccc(-c2ccc(OC(F)(F)F)cc2)cc1)Nc1ccc(C(=O)NCCC(=O)O)cc1 [Compound 19-14, (S)-3-(4-((1-propoxy-3-(4′-(trifluoromethoxy)-[1,1′-biphenyl]-4-yl)propan-2-yl)amino)benzamido)propanoic Acid] | – | – | 444 nM | 787 nM |
| CCCOC[C@H](Cc1ccc(-c2ccc(Cl)cc2Cl)cc1)Nc1ccc(C(=O)NCCC(=O)O)cc1 [Compound 19-15, (S)-3-(4-((1-(2′,4′-dichloro-[1,1′-biphenyl]-4-yl)-3-propoxypropan-2-yl)amino)benzamido)propanoic Acid] | – | – | 2670 nM | 2029 nM |
| CCCOC[C@H](Cc1ccc(-c2c(C)cc(C)cc2C)cc1)Nc1ccc(C(=O)NCCC(=O)O)cc1 [Compound 19-16, (S)-3-(4-((1-propoxy-3-(2′,4′,6′-trimethyl-[1,1′-biphenyl]-4-yl)propan-2-yl)amino)benzamido)propanoic Acid] | – | – | 3700 nM | 1729 nM |
| CC(C)COC[C@@H](Cc1ccc(-c2ccc(C(C)(C)C)cc2)cc1)Nc1ccc(C(=O)NCCC(=O)O)cc1 [Compound 19-17, (R)-3-(4-((1-(4′-(tert-butyl)-[1,1′-biphenyl]-4-yl)-3-isobutoxypropan-2-yl)amino)benzamido)propanoic Acid] | – | – | 1040 nM | 1225 nM |
